# Assay results taken from publication PMC4935606 (Organic & biomolecular chemistry, 2016).
# Assays:
# recombinant human PTP4A3 = recombinant human PTP4A3 (Homo sapiens, UniProt O75365); test: In vitro PTP4A3 phosphatase inhibition assay with DiFMUP substrate; type: biochemical
# [1] = Spontaneous conversion of 1 to 13 under the assay conditions; type: physicochemical; details: 90 min, in the presence or absence of DTT
# tumor cell = details: cited from earlier work
# cells = details: ref 7b; cited from earlier work
# [2] = Side-by-side LCMS/UV solution stability study; type: physicochemical; details: 0.1 mg/mL in DMSO/H2O (5:1), within 24 h
# recombinant human PTP4A3, sequence (O75365 whole entry): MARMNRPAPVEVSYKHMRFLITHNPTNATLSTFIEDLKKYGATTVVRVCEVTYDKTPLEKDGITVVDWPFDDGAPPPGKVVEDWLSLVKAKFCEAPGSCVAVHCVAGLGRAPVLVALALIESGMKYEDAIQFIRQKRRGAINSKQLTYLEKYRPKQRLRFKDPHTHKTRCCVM
SMILES,PTP4A3 inhibition (in words) (recombinant human PTP4A3; qualitative statement),"IC50 (recombinant human PTP4A3; read-out: IC50 [µM±S.D.], inhibition of PTP4A3 activity, n=3, DiFMUP 12 µM, 25 °C, 30 min, pH 7.0, 4 mM DTT)",Spontaneous conversion of 1 to 13 [1],Inhibition of tumor cell anchorage-independent growth (tumor cell),Short-term cytotoxicity in cells (cells),Decomposition [2]
O=c1[nH]ccc2sc(-c3ccccc3)cc12 [Compound 12],remarkably less active than 1,> 80 µM,–,–,–,–
Nc1c[nH]c(=O)c2cc(-c3ccccc3)sc12 [Compound 1],–,–,≤ 5%,Significant inhibition,does not have any short-term cytotoxicity,> 80%
